Laboratory results: US20230200390A1, “SELECTIVE HERBICIDES BASED ON SUBSTITUTED ISOXAZOLIN CARBOXAMIDES AND MEFENPYR-DIETHYL” (BAYER AKTIENGESELLSCHAFT, priority 2020, published 2023)

Tests used:
Format in all cases: in vivo
[1] = test system: spring barley, HORVS Montoya; assay: Tank-mix; post-emergence: crop damage by herbicide with/without safener mefenpyr-diethyl
Description: (§1) Seeds of crops (spring wheat, TRZAS; spring barley, HORVS; maize, ZEAMA) were placed in sandy loam soil in peat pots, covered with soil and cultivated in a greenhouse under good growth conditions. Two to three weeks after sowing, the test plants were treated at the 1 to 3-leaf stage. The herbicide/safener active compound combinations according to the invention, formulated as wettable powders or emulsion concentrates, and, in parallel tests, the correspondingly formulated individual active compounds were sprayed onto the green parts of the plants in various dosages using an amount of water of 300 l/ha (converted).
(§2) The pots were returned under good growing conditions in a glasshouse and a visual assessment of herbicidal effects was made at intervals from 1 to 3 weeks after herbicide application (DAT=days after treatment). Assessment was on a percentage basis in comparison with untreated control plants (0%=no injury, 100%=complete kill).

[2] = test system: spring wheat, TRZAS Triso; assay: as above; settings: 10 DAT
Description: as §1, §2

[3] = test system: spring barley, HORVS Montoya; assay: Seed treatment with safener; post-emergence herbicide, crop damage; settings: for HER effect + SAF / Reduction [%] / Reduction [Difference]: mefenpyr-diethyl 0.5 g a.i./kg seed
From the text: (§3) For safener seed treatment trials, sufficient seed amounts of the respective crops (spring wheat (TRZAS); spring barley (HORVS)) were weighed into screw cap glass bottles with a minimum volume trice of the seeds.
(§4) As a first step, specified safeners formulated as wettable powder (WP) or wettable granules (WG) were weighed out for the required dosages (g a.i./kg seed), corresponding to the seed amounts. The safener amounts were mixed with a coloured slurry blind formulation type, prediluted with milk at 3.5% fat rate (25 mgs slurry formulation plus 2 ml milk per 10 grams of seed). A tube roller was used for coating. The solutions were gradually pipetted each on the rotating seeds followed by coating for min. 3 hours until all liquid had been soaked up by the seeds. Thereafter, the coated seeds were put flat on open trays for drying over night at room temperature.
(§5) Treated seeds were then placed into pots (7 cm diameter) on the surface of sandy loam, pressed down, flat covered with additional soil and finally covered with sandy soil, also pressed down, watered, and kept under good growth conditions in a greenhouse, until the plants had reached 2-leaf-stage (BBCH 12).
(§6) At that stage, post-emergence application of the specified herbicides was done on:
(§7) a) pot sets containing plants with safener-coated seeds as described above,
(§8) b) as a reference, pot sets of plants without seed treatment.
(§9) The herbicides were formulated as wettable powder (WP). Equivalent to the spray area, compound amounts were weighed out and diluted related to the water application rate (300 l/ha) to an aqueous suspension plus additive (1 l/ha MERO). Dosage related equivalents were conventionally sprayed on trays with the potted plants.
(§10) After application, the test plants were kept under good growth conditions in a greenhouse.
(§11) Assessment timings were 10 and 21 days after treatment (DAT) with the herbicide, by visual scoring of the crop damage in % (comparison of untreated with treated plants, either sprayed only with herbicide or with herbicide on plants with treated seeds).

[4] = test system: spring wheat, TRZAS Triso; assay: as above; settings: 10 DAT; for HER effect + SAF [%] (crop damage) / Reduction [%] / Reduction [Difference]: mefenpyr-diethyl 0.5 g a.i./kg seed; for HER effect [%] (crop damage, herbicide without safener): no safener
From the text: as §3, §4, §5, §6, §7, §8, §9, §10, §11

[5] = HER 32 g a.i./ha + mefenpyr-diethyl 100 g a.i./ha, 21 DAT
[6] = HER 1.5 g a.i./ha + mefenpyr-diethyl 50 g a.i./ha
[7] = HER 6 g a.i./ha + mefenpyr-diethyl 50 g a.i./ha
[8] = HER 24 g a.i./ha + mefenpyr-diethyl 100 g a.i./ha
[9] = HER 8 g a.i./ha post-emergence, 21 DAT
[10] = HER 32 g a.i./ha post-emergence, 21 DAT
[11] = HER 8 g a.i./ha + mefenpyr-diethyl 50 g a.i./ha, 10 DAT
[12] = herbicide alone 8 g a.i./ha, 10 DAT
[13] = HER 8 g a.i./ha + mefenpyr-diethyl 50 g a.i./ha
[14] = HER 8 g a.i./ha post-emergence, 10 DAT
[15] = HER 32 g a.i./ha post-emergence, 10 DAT
[16] = herbicide alone 8 g a.i./ha post-emergence, 10 DAT
[17] = herbicide alone 32 g a.i./ha post-emergence, 10 DAT

CC(C)OC(=O)C1CC(NC(=O)C2(C)CC(c3cccc(F)c3)=NO2)CO1 (mixture of isomers) [Example 1.78]
HER effect + SAF [1, 5]: 10% | Reduction [%] [1, 5]: 75% | Reduction [Difference] [1, 5]: 30 | HER effect ([1]; herbicide alone 32 g a.i./ha, 21 DAT): 40% | HER effect + SAF [2, 6]: 0% | Reduction [%] [2, 6]: 100% | Reduction [Difference] [2, 6]: 20 | HER effect + SAF [2, 7]: 10% | Reduction [%] [2, 7]: 86% | Reduction [Difference] [2, 7]: 60 | HER effect + SAF [2, 8]: 30% | Reduction [%] [2, 8]: 57% | Reduction [Difference] [2, 8]: 40 | HER effect ([2]; herbicide alone 1.5 g a.i./ha): 20% | HER effect ([2]; herbicide alone 6 g a.i./ha): 70% | HER effect ([2]; herbicide alone 24 g a.i./ha): 70% | HER effect + SAF [3, 9]: 0% | Reduction [%] [3, 9]: 100% | Reduction [Difference] [3, 9]: 20 | HER effect + SAF [3, 10]: 10% | Reduction [%] [3, 10]: 75% | Reduction [Difference] [3, 10]: 30 | HER effect ([3]; herbicide alone 8 g a.i./ha post-emergence, 21 DAT): 20% | HER effect ([3]; herbicide alone 32 g a.i./ha post-emergence, 21 DAT): 40% | HER effect + SAF [%] (crop damage) ([4]; HER dose 6 g a.i./ha): 30% | Reduction [%] ([4]; HER dose 6 g a.i./ha): 57% | Reduction [Difference] ([4]; HER dose 6 g a.i./ha): 40 | HER effect [%] (crop damage, herbicide without safener) ([4]; HER dose 6 g a.i./ha): 70% | HER effect + SAF [%] (crop damage) ([4]; HER dose 24 g a.i./ha): 30% | Reduction [%] ([4]; HER dose 24 g a.i./ha): 57% | Reduction [Difference] ([4]; HER dose 24 g a.i./ha): 40 | HER effect [%] (crop damage, herbicide without safener) ([4]; HER dose 24 g a.i./ha): 70%

C=CC1(C(=O)NC2COC(C(=O)OCCOC)C2)CC(c2cc(C)cc(F)c2)=NO1 (mixture of isomers) [Example 1.65]
HER effect + SAF [1, 11]: 20% | Reduction [%] [1, 11]: 75% | Reduction [Difference] [1, 11]: 60 | HER effect [1, 12]: 80% | HER effect + SAF [2, 13]: 0% | Reduction [%] [2, 13]: 100% | Reduction [Difference] [2, 13]: 20 | HER effect ([2]; herbicide alone 8 g a.i./ha): 20% | HER effect + SAF [3, 14]: 20% | Reduction [%] [3, 14]: 75% | Reduction [Difference] [3, 14]: 60 | HER effect + SAF [3, 15]: 50% | Reduction [%] [3, 15]: 38% | Reduction [Difference] [3, 15]: 30 | HER effect [3, 16]: 80% | HER effect [3, 17]: 80% | HER effect + SAF [%] (crop damage) ([4]; HER dose 8 g a.i./ha): 0% | Reduction [%] ([4]; HER dose 8 g a.i./ha): 100% | Reduction [Difference] ([4]; HER dose 8 g a.i./ha): 20 | HER effect [%] (crop damage, herbicide without safener) ([4]; HER dose 8 g a.i./ha): 20%

CC1(C(=O)NC2CC=C(C(=O)NS(C)(=O)=O)C2)CC(c2cc(F)cc(F)c2)=NO1 (mixture of isomers) [Example 1.61]
HER effect + SAF [1, 11]: 30% | Reduction [%] [1, 11]: 40% | Reduction [Difference] [1, 11]: 20 | HER effect [1, 12]: 50% | HER effect + SAF [2, 7]: 10% | Reduction [%] [2, 7]: 80% | Reduction [Difference] [2, 7]: 40 | HER effect + SAF [2, 8]: 20% | Reduction [%] [2, 8]: 60% | Reduction [Difference] [2, 8]: 30 | HER effect ([2]; herbicide alone 6 g a.i./ha): 50% | HER effect ([2]; herbicide alone 24 g a.i./ha): 50% | HER effect + SAF [3, 14]: 10% | Reduction [%] [3, 14]: 80% | Reduction [Difference] [3, 14]: 40 | HER effect + SAF [3, 15]: 20% | Reduction [%] [3, 15]: 67% | Reduction [Difference] [3, 15]: 40 | HER effect [3, 16]: 50% | HER effect [3, 17]: 60% | HER effect + SAF [%] (crop damage) ([4]; HER dose 8 g a.i./ha): 10% | Reduction [%] ([4]; HER dose 8 g a.i./ha): 80% | Reduction [Difference] ([4]; HER dose 8 g a.i./ha): 40 | HER effect [%] (crop damage, herbicide without safener) ([4]; HER dose 8 g a.i./ha): 50%
